# According to ChEMBL document CHEMBL4507291 (2021):
# How the values were obtained:
# [1] = target: T1, Aurora kinase A (Homo sapiens) (UniProt O14965)
# T1 sequence (whole entry): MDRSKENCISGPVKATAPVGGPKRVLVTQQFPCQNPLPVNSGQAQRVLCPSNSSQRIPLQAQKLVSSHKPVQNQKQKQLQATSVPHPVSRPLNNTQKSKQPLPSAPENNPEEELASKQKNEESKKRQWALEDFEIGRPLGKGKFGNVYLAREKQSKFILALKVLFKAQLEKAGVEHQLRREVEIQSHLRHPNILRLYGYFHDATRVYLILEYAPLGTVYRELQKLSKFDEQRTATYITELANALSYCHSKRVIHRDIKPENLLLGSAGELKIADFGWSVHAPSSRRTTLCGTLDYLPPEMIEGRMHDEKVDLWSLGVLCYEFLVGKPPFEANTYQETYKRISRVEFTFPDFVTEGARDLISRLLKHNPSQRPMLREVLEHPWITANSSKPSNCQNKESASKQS
# [2] = target: Calcium/calmodulin-dependent protein kinase type IV (Homo sapiens) (UniProt Q16566)
# [3] = target: Calcium/calmodulin-dependent protein kinase kinase 2 (Homo sapiens) (UniProt Q96RR4)
# [4] = target: Casein kinase I isoform alpha (Homo sapiens) (UniProt P48729)
# [5] = target: Serine/threonine-protein kinase DCLK1 (Homo sapiens) (UniProt O15075)
# [6] = target: Ephrin type-A receptor 7 (Homo sapiens) (UniProt Q15375)
# [7] = target: Mitogen-activated protein kinase 4 (Homo sapiens) (UniProt P31152)
# [8] = test system: Receptor-type tyrosine-protein kinase FLT3 (Homo sapiens), P36888 [N841I]
# [9] = target: Homeodomain-interacting protein kinase 2 (Homo sapiens) (UniProt Q9H2X6)
# [10] = target: Interleukin-1 receptor-associated kinase 3 (Homo sapiens) (UniProt Q9Y616)
# [11] = target: Dual specificity mitogen-activated protein kinase kinase 1 (Homo sapiens) (UniProt Q02750)
# [12] = target: T2, Serine/threonine-protein kinase NLK (Homo sapiens) (UniProt Q9UBE8)
# T2 sequence (whole entry): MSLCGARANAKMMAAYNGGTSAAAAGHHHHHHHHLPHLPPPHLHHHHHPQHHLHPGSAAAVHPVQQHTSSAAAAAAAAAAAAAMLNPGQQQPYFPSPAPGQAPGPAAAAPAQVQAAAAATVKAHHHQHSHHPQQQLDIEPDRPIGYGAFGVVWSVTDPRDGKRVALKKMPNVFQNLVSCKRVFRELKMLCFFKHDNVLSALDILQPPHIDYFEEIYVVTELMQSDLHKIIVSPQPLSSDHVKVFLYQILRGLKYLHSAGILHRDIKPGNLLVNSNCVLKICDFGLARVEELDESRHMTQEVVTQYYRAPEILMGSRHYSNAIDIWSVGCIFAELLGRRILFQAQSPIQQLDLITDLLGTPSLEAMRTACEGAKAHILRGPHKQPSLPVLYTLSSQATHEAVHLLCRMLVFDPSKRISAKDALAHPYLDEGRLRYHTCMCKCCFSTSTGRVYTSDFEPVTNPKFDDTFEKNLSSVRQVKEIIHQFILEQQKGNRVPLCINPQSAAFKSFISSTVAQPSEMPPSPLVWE
# [13] = target: Phosphatidylinositol 3-kinase C2 domain-containing subunit gamma (Homo sapiens) (UniProt O75747)
# [14] = test system: Phosphatidylinositol 4,5-bisphosphate 3-kinase catalytic subunit alpha isoform (Homo sapiens), P42336 [E545K]
# [15] = test system: Phosphatidylinositol 4,5-bisphosphate 3-kinase catalytic subunit alpha isoform (Homo sapiens), P42336 [H1047L]
# [16] = target: Phosphatidylinositol 4,5-bisphosphate 3-kinase catalytic subunit delta isoform (Homo sapiens) (UniProt O00329)
# [17] = target: Phosphatidylinositol 4-phosphate 5-kinase type-1 gamma (Homo sapiens) (UniProt O60331)
# [18] = target: Proto-oncogene tyrosine-protein kinase ROS (Homo sapiens) (UniProt P08922)
# [19] = target: SRSF protein kinase 2 (Homo sapiens) (UniProt P78362)
# [20] = target: Serine/threonine-protein kinase WNK4 (Homo sapiens) (UniProt Q96J92)
# [21] = Compound concentration 100.0 nM
# [22] = Compound concentration 1000.0 nM
# Sequence of Phosphatidylinositol 4,5-bisphosphate 3-kinase catalytic subunit alpha isoform (Homo sapiens), P42336 [E545K] (P42336 whole entry E545K, canonical isoform): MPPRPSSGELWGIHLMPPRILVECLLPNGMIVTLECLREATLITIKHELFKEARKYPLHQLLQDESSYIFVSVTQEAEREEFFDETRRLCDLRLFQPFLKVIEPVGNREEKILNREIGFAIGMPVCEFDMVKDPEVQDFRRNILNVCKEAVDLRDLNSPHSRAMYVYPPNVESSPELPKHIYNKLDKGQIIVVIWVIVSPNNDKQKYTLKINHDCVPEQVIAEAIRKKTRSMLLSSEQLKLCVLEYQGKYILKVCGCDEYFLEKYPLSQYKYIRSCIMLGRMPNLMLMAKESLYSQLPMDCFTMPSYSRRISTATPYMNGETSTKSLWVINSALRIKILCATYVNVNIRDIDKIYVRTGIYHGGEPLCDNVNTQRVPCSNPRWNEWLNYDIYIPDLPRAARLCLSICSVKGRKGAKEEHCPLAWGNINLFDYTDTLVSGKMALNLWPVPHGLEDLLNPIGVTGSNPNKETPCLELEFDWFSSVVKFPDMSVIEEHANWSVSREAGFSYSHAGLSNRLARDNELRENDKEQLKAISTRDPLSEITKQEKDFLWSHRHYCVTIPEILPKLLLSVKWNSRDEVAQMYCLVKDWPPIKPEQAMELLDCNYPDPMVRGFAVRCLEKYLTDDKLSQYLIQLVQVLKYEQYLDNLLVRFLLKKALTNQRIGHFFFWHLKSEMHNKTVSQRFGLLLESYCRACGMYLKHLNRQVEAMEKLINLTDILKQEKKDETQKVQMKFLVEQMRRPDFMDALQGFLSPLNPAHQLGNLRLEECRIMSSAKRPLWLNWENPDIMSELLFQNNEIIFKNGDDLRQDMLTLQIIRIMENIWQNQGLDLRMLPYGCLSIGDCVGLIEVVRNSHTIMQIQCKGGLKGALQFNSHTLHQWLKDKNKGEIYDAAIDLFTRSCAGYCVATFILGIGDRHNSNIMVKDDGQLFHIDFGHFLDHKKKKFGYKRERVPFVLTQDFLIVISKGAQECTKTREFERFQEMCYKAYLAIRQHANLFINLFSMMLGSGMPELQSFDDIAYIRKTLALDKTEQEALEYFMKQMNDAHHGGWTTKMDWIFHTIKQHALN
# Sequence of Serine/threonine-protein kinase DCLK1 (Homo sapiens) (O15075 whole entry): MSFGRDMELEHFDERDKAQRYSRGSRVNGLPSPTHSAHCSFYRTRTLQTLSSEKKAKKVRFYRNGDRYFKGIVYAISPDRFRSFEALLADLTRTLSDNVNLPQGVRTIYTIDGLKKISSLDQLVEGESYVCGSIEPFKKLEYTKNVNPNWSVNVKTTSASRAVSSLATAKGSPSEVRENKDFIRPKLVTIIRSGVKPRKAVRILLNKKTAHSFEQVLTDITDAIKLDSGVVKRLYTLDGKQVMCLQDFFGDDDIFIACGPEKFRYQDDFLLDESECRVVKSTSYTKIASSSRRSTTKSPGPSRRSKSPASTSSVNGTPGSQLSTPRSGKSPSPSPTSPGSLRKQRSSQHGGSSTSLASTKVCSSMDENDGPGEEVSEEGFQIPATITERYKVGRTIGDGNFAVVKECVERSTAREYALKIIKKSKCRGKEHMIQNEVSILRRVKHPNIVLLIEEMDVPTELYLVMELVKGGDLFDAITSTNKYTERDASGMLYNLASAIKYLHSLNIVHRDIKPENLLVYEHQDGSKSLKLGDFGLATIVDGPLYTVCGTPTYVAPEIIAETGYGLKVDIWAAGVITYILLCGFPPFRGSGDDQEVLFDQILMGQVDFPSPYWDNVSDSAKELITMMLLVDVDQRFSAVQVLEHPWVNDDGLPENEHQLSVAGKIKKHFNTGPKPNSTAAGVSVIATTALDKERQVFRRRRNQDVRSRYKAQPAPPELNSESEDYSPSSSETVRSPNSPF
# Sequence of Phosphatidylinositol 3-kinase C2 domain-containing subunit gamma (Homo sapiens) (O75747 whole entry, the tested form may be a part, canonical isoform): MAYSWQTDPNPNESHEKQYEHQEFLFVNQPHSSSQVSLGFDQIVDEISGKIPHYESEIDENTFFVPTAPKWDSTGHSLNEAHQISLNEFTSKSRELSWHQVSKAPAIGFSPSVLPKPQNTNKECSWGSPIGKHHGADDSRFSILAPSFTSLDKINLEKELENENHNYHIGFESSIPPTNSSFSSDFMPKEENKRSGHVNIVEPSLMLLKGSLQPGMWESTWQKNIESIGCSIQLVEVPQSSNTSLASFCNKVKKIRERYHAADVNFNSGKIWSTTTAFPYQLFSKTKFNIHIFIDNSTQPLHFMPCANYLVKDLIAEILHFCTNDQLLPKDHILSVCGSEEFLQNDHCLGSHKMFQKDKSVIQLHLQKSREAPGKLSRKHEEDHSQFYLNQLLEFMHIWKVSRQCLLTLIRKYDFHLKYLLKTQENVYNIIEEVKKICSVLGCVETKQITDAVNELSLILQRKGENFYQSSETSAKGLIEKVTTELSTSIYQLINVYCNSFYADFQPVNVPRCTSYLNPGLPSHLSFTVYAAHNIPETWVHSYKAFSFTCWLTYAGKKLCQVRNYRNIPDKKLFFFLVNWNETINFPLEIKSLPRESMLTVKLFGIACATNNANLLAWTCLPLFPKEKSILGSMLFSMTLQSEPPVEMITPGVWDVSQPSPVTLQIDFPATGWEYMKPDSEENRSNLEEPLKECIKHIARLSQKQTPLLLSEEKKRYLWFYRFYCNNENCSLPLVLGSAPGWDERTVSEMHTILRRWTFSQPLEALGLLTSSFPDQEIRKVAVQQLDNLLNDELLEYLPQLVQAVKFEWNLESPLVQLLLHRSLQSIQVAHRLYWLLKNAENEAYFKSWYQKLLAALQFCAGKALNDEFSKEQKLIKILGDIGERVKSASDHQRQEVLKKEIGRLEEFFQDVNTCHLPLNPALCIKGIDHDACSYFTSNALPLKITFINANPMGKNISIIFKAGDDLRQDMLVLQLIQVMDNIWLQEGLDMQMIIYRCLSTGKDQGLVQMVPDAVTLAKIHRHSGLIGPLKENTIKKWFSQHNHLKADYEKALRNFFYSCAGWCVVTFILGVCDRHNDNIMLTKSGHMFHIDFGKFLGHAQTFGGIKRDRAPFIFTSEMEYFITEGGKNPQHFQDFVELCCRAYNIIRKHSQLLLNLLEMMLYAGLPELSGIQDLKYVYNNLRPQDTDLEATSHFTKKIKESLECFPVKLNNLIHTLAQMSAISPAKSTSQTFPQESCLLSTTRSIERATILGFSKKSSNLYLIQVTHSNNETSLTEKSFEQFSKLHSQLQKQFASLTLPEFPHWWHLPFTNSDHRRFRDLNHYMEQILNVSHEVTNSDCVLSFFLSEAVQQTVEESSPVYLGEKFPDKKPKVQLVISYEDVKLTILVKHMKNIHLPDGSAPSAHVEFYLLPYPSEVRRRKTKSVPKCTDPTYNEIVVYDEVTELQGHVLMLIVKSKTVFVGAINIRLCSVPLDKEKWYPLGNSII
# Sequence of Calcium/calmodulin-dependent protein kinase type IV (Homo sapiens) (Q16566 whole entry): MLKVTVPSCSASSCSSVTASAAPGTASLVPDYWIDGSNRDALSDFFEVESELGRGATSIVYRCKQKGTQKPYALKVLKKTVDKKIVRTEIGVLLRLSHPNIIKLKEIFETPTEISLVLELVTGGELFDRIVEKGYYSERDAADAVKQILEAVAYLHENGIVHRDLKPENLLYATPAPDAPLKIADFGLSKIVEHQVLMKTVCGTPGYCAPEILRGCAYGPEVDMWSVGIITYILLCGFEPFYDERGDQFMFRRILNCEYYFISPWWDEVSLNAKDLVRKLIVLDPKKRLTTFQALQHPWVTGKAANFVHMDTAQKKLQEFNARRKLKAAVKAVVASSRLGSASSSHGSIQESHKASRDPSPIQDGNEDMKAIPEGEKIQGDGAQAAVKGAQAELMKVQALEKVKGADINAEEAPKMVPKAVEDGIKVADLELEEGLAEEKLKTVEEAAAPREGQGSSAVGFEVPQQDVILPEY
# Sequence of Calcium/calmodulin-dependent protein kinase kinase 2 (Homo sapiens) (Q96RR4 2-588 limits assumed): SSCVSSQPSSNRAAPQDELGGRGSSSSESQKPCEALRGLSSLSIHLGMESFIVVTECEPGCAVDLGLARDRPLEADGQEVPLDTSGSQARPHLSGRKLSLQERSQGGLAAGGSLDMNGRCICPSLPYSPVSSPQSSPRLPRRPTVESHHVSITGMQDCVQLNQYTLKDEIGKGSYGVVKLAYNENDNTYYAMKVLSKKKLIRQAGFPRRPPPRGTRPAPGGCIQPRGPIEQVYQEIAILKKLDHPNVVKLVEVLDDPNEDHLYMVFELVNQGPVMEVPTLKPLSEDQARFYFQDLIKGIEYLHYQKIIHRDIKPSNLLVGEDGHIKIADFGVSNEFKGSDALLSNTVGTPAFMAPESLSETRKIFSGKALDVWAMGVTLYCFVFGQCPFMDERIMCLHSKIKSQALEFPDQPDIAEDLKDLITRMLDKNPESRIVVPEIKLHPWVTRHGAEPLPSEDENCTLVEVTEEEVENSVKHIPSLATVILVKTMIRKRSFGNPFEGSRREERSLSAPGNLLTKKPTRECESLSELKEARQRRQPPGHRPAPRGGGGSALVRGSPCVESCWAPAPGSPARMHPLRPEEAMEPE
# Sequence of Dual specificity mitogen-activated protein kinase kinase 1 (Homo sapiens) (Q02750 whole entry): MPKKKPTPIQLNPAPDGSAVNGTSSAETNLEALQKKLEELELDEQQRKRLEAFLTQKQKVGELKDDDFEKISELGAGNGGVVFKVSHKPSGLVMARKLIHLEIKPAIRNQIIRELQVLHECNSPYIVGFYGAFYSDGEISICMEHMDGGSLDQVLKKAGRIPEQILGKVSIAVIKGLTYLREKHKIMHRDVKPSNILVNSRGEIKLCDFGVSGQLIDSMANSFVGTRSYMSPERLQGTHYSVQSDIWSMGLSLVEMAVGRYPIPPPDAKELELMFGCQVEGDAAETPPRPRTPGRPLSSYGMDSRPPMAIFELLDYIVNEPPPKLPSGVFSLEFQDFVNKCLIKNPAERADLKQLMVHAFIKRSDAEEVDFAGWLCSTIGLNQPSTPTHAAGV
# Sequence of Phosphatidylinositol 4,5-bisphosphate 3-kinase catalytic subunit alpha isoform (Homo sapiens), P42336 [H1047L] (P42336 whole entry H1047L, canonical isoform): as the sequence (P42336 whole entry E545K, canonical isoform) above, with K545E, H1047L counted along it
smiles,measurement,setting,value
C[C@@H]1CN(c2cc(-c3n[nH]c4ccc(OC5(C)CC5)cc34)ncn2)C[C@H](C)O1 [MLi-2],residual activity,[1]; [21],94%
same,residual activity,[2]; [21],78%
same,residual activity,[3]; [21],100%
same,residual activity,[4]; [21],73%
same,residual activity,[5]; [21],81%
same,residual activity,[6]; [21],82%
same,residual activity,[7]; [21],83%
same,residual activity,[8]; [21],46%
same,residual activity,[9]; [21],80%
same,residual activity,[10]; [21],94%
same,residual activity,[11]; [21],88%
same,residual activity,[12]; [21],100%
same,residual activity,[13]; [21],69%
same,residual activity,[14]; [21],65%
same,residual activity,[15]; [21],87%
same,residual activity,[16]; [21],68%
same,residual activity,[17]; [21],92%
same,residual activity,[18]; [21],100%
same,residual activity,[19]; [21],79%
same,residual activity,[20]; [21],94%
C[C@@H]1CN(c2cc(-c3nn(C)c4ccc(OC5(C)CC5)cc34)ncn2)C[C@H](C)O1 [MLi-2-NC],residual activity,[1]; [22],100%
same,residual activity,[2]; [22],67%
same,residual activity,[3]; [22],85%
same,residual activity,[4]; [22],100%
same,residual activity,[5]; [22],64%
same,residual activity,[6]; [22],99%
same,residual activity,[7]; [22],93%
same,residual activity,[8]; [22],85%
same,residual activity,[9]; [22],74%
same,residual activity,[10]; [22],89%
same,residual activity,[11]; [22],74%
same,residual activity,[12]; [22],96%
same,residual activity,[13]; [22],100%
same,residual activity,[14]; [22],79%
same,residual activity,[15]; [22],83%
same,residual activity,[16]; [22],97%
same,residual activity,[17]; [22],90%
same,residual activity,[18]; [22],100%
same,residual activity,[19]; [22],88%
same,residual activity,[20]; [22],60%
